Data as given in patent US9783536B2, “Nitrogen-containing heterocyclic compound or salt thereof” (FUJIFILM Corporation, priority 2013, dated 2017).
Structures can show the parent of a compound that is named as a salt. Where two headings read alike, the source gives them in different places.

Columns and labels:
CHO-K1 cells = assay: CHO cell toxicity test; type: cell-based, Chinese hamster; conditions: Cricetulus griseus; CHO-K1 cells, 24 hours culture with compound, CellTiter-Glo; read-out: IC50 value (concentration at which the number of viable cells was suppressed to 50% or less)
Description: In a CHO cell toxicity test, the following was used.
Cell: CHO-K1 cells (derived from Chinese hamster ovary) Test medium: F-12 MEDIUM+FCS (manufactured by Biowest) having a final concentration of 2%
Detection reagent: CELLTITER-GLO™ LUMINESCENT CELL VIABILITY ASSAY (trade name, manufactured by PROMEGA Corporation)
The CHO-K1 cells were seeded in a 96-well microplate for culture at 5,000 cells/well, and cultured in a CO2 incubator (37° C.) for 24 hours. An evaluation compound (final concentration: from 25.00 μmol/L to 0.20 μmol/L, common ratio: […]) was added thereto, followed by culturing for 24 hours, and the number of viable cells was calculated from emission intensity by CELLTITER-GLO™ (trade name, manufactured by PROMEGA Corporation). In the measurement of the emission intensity, VARIOSKAN FLASH (manufactured by Thermo Fisher Scientific Inc.) was used.
Inhibition ratio (%)=100−(A/B)×100
A: Emission intensity in the presence of a test compound
B: Emission intensity in the absence of a test compound

human PI3Kα protein = molecular target: T1, human PI3Kα protein (Homo sapiens, UniProt P42336); assay: PI3Kα enzyme assay (ADP-Glo); type: biochemical; conditions: read-out: PI3Kα enzyme inhibitory activity
T1 construct: purchased Carna Biosciences, Inc; host or cells: baculovirus expression system
T1 sequence (P42336 whole entry): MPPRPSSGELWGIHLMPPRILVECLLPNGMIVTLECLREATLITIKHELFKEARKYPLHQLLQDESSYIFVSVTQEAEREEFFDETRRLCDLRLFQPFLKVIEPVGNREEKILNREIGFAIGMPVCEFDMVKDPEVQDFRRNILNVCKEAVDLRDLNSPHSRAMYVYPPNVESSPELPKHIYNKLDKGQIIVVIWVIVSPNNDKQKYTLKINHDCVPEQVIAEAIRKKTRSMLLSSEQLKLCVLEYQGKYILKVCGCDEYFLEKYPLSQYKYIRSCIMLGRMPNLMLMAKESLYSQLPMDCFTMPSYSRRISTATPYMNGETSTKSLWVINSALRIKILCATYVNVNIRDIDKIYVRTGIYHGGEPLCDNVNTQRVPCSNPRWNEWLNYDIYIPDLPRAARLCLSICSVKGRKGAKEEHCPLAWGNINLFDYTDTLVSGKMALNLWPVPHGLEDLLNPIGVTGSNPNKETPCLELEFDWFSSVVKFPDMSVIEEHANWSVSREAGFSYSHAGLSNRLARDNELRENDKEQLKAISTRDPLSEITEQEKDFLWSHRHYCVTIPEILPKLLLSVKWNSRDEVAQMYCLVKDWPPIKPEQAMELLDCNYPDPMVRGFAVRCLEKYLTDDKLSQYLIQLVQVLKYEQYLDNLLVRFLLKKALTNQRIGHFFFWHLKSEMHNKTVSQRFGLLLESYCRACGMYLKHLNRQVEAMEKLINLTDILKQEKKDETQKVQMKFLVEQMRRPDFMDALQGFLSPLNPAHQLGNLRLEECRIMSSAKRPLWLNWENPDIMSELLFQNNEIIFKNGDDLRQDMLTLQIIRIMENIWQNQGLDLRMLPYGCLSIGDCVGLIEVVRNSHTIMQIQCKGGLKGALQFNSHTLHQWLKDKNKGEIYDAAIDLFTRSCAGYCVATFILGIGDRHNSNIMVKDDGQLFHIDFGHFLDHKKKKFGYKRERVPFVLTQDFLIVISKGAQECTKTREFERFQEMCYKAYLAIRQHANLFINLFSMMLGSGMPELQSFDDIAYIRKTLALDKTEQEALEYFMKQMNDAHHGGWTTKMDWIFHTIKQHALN
T1 sequence (P27986 whole entry partner): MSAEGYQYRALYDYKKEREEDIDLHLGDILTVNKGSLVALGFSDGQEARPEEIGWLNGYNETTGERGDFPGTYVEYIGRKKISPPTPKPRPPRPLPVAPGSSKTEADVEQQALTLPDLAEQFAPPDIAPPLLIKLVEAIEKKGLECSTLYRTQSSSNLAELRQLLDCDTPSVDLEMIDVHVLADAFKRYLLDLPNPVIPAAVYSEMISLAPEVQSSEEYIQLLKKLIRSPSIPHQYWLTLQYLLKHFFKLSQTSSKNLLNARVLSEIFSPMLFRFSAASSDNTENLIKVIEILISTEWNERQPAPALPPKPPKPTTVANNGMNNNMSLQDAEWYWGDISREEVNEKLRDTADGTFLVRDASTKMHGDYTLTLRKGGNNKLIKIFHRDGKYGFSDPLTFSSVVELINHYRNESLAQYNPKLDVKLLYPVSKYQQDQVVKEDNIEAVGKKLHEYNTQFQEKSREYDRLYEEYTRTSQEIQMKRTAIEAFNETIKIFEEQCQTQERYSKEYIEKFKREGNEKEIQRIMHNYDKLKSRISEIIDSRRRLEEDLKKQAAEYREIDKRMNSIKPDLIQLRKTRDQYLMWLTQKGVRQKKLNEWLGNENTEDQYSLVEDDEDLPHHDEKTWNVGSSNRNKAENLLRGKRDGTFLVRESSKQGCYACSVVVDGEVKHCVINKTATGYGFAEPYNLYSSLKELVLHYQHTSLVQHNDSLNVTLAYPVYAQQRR
Outline: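 Biotinylated human PI3Kα (baculovirus-expressed, 4.5 nmol/L) pre-incubated 15 min with compound in Tris-HCl pH 7.5, MgCl2, BSA; reaction 60 min at 25° C with 50 μmol/L PIP2 and 100 μmol/L ATP final. ADP quantified by ADP-Glo luminescence; IC50 calculated.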

[1] = molecular target: T2, GST fusion human ERK2 protein (Homo sapiens, UniProt P28482); assay: ERK2 enzyme assay (2); type: biochemical; conditions: read-out: ERK2 enzyme inhibitory activity (2)
T2 construct: purchased Carna Biosciences, Inc; host or cells: E. coli expression system
T2 sequence (P28482 whole entry, the tested form may be a part): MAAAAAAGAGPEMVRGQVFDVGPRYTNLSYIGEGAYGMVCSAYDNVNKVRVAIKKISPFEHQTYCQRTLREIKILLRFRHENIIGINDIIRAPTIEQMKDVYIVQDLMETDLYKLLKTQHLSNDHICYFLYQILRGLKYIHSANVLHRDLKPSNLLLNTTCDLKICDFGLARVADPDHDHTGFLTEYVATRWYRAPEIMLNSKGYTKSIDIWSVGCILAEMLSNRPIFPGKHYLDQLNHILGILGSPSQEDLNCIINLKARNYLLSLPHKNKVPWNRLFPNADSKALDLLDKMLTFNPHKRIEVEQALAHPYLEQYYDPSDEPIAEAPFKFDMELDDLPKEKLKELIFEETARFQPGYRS
Outline: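 GST-tagged human ERK2 expressed in E. coli (1.25 nmol/L) was preincubated with compound for 15 min at room temperature in pH 7.5 Hepes buffer with MgCl2, DTT and Brij35. Reaction with FL-Peptide 8 (final 4.25 μmol/L) and ATP (final 1 mmol/L) ran 120 min at 25 °C; EDTA stopped it, and phosphorylated peptide was quantified by mobility-shift separation to derive IC50.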

[2] = molecular target: T2, GST fusion human ERK2 protein; assay: ERK2 enzyme assay (1); type: biochemical; conditions: read-out: ERK2 enzyme inhibitory activity (1)
Outline: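 Enzyme (2.5 nmol/L, E. coli-expressed) preincubated with compound 15 min at room temperature in HEPES/MgCl2/DTT/Brij35 buffer, pH 7.5; reaction with 4.25 μmol/L FL-Peptide 8 and 43.1 μmol/L ATP for 120 min at 25 °C. Phosphorylated peptide fraction quantified by mobility-shift separation after EDTA stop; IC50 calculated.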

[3] = 2.5 nmol/L ERK2, ATP 43.1 μmol/L
[4] = 4.5 nmol/L PI3Kα, PIP2 50 μmol/L, ATP 100 μmol/L

Compound | IC50 (CHO-K1 cells) | IC50 (human PI3Kα protein) | IC50 ([1]; ERK2 enzyme assay (2)) | IC50 [2, 3] | IC50 (human PI3Kα protein; [4]) | IC50 ([1]; 1.25 nmol/L ERK2, ATP 1 mmol/L) | IC50 ([2]; ERK2 enzyme assay (1))
CC(C)c1cnnc(Nc2ccc3ncc(-c4cnn(Cc5cccc(N)c5)c4)cc3n2)c1 [Example 0712, 7-(1-(3-Aminobenzyl)-1H-pyrazol-4-yl)-N-(5-isopropylpyridazin-3-yl)-1,5-naphthyridine-2-amine] | ≥ 25000 nM | < 1000 nM | < 1000 nM | – | – | – | –
CC(C)c1cnnc(Nc2ccc3ncc(-c4cnn(CCCN5CCS(=O)(=O)CC5)c4)cc3n2)c1 [Example 0417, 4-(3-(4-(6-((5-isopropylpyridazin-3-yl)amino)-1,5-naphthyridin-3-yl)-1H-pyrazol-1-yl)propyl)thiomorpholine 1,1-dioxide] | ≥ 25000 nM | < 1000 nM | < 1000 nM | – | – | – | –
CC(C)c1cnnc(Nc2ccc3ncc(-c4cnn(CC5CCN(S(C)(=O)=O)CC5)c4)cc3n2)c1 [Example 0530] | ≥ 25000 nM | < 1000 nM | < 1000 nM | – | – | – | –
CCn1cc(-c2cnc3ccc(Nc4cc(C(C)C)cnn4)nc3c2)c(-c2cccnc2)n1 [Example 0576] | ≥ 25000 nM | < 1000 nM | < 1000 nM | – | – | – | –
c1nc2ccc(Nc3cc(C4CCCCC4)cnn3)nc2cc1-c1cnn(CCCN2CCCC2)c1 [Example 0017] | – | – | – | < 1000 nM | < 1000 nM | < 1000 nM | –
c1cncc(Cc2nnc(Nc3ccc4ncc(-c5cnn(CCCN6CCCC6)c5)cc4n3)s2)c1 [Example 0262] | – | < 1000 nM | < 1000 nM | – | – | – | < 1000 nM
c1ccc(Cc2nnc(Nc3ccc4ncc(-c5cnn(CCCN6CCCC6)c5)cc4n3)s2)nc1 [Example 0261] | – | < 1000 nM | < 1000 nM | – | – | – | < 1000 nM
CC(C)Cc1cnnc(Nc2ccc3ncc(-c4cnn(CCCN5CCCC5)c4)cc3n2)c1 [Example 0292] | – | < 1000 nM | < 1000 nM | – | – | – | < 1000 nM
CN(c1cccnc1)c1cnc2ccc(Nc3nnc(C4CCCC4)s3)nc2c1 [Example 0071] | – | – | – | < 1000 nM | < 1000 nM | < 1000 nM | –
c1cc(-c2ccnc3ccc(Nc4nnc(CC5CCCO5)s4)nc23)ccn1 (stereo not drawn) [Example 0276] | – | < 1000 nM | 1000 to 10000 nM | – | – | – | < 1000 nM
NC(=O)CCn1cc(-c2cnc3ccc(Nc4nnc(C5CCCC5)s4)nc3c2)cn1 [Example 0343] | – | < 1000 nM | < 1000 nM | – | – | – | < 1000 nM
COCc1nnc(Nc2ccc3ncc(-c4cnn(C)c4)cc3n2)s1 [Example 0170, 5-(Methoxymethyl)-N-(7-(1-methyl-1H-pyrazol-4-yl)-1,5-naphthyridin-2-yl)-1,3,4-thiadiazole-2-amine] | – | – | – | < 1000 nM | 1000 to 10000 nM | < 1000 nM | –
Cc1n[nH]c(C)c1-c1cnc2ccc(Nc3nnc(C4CCCC4)s3)nc2c1 [Example 0215] | – | 1000 to 10000 nM | < 1000 nM | – | – | – | < 1000 nM
CN1CCC(n2cc(-c3cnc4ccc(Nc5nnc(C6CCCC6)s5)nc4c3)cn2)CC1 [Example 0318, 5-cyclopentyl-N-(7-(1-(1-methylpiperidin-4-yl)-1H-pyrazol-4-yl)-1,5-naphthyridin-2-yl)-1,3,4-thiadiazole-2-amine] | – | < 1000 nM | < 1000 nM | – | – | – | < 1000 nM
CNS(=O)(=O)c1nnc(Nc2ccc3ncc(-c4cnn(C)c4)cc3n2)s1 [Example 0189, methyl ((5-((7-(1-methyl-1H-pyrazol-4-yl)-1,5-naphthyridin-2-yl)amino)-1,3,4-thiadiazol-2-yl)sulfonyl)amide sodium salt] | – | – | – | < 1000 nM | < 1000 nM | < 1000 nM | –
CCCc1nn(C)cc1-c1cnc2ccc(Nc3nnc(C4CCCC4)s3)nc2c1 [Example 0112] | – | – | – | < 1000 nM | < 1000 nM | < 1000 nM | –

Compound | IC50 (CHO-K1 cells) | IC50 (human PI3Kα protein) | IC50 ([1]; ERK2 enzyme assay (2)) | IC50 [2, 3] | IC50 (human PI3Kα protein; [4]) | IC50 ([1]; 1.25 nmol/L ERK2, ATP 1 mmol/L) | IC50 ([2]; ERK2 enzyme assay (1))
OCCN1CCC(n2cc(-c3cnc4ccc(Nc5nnc(C6CCCC6)s5)nc4c3)cn2)CC1 [Example 0336, 2-(4-(4-(6-((5-cyclopentyl-1,3,4-thiadiazol-2-yl)amino)-1,5-naphthyridin-3-yl)-1H-pyrazol-1-yl)piperidin-1-yl)ethanol] | – | < 1000 nM | < 1000 nM | – | – | – | < 1000 nM
CC(C)Oc1c(-c2cnn(C)c2)cnc2ccc(Nc3nnc(C4CCCC4)s3)nc12 [Example 0359, 5-cyclopentyl-N-(8-isopropyloxy-7-(1-methyl-1H-pyrazol-4-yl)-1,5-naphthyridin-2-yl)-1,3,4-thiadiazole-2-amine] | – | < 1000 nM | 1000 to 10000 nM | – | – | – | < 1000 nM
CC(=O)N1CCCC1c1nnc(Nc2ccc3ncc(-c4cnn(C)c4)cc3n2)s1 (stereo not drawn) [Example 0248, 1-(2-(5-((7-(1-methyl-1H-pyrazol-4-yl)-1,5-naphthyridin-2-yl)amino)-1,3,4-thiadiazol-2-yl)pyrrolidin-1-yl)ethanone] | – | 1000 to 10000 nM | < 1000 nM | – | – | – | < 1000 nM
Cn1cc(-c2cnc3ccc(Nc4nnc(C5CCCC5)s4)nc3c2)cn1 [Example 0172, 5-cyclopentyl-N-(7-(1-methyl-1H-pyrazol-4-yl)-1,5-naphthyridin-2-yl)-1,3,4-thiadiazole-2-amine] | – | – | – | < 1000 nM | < 1000 nM | < 1000 nM | –
CS(=O)(=O)Cc1nnc(Nc2ccc3ncc(-c4cnn(CCCN5CCCC5)c4)cc3n2)s1 [Example 0258] | – | < 1000 nM | < 1000 nM | – | – | – | < 1000 nM
FC1(F)CCN(CCCn2cc(-c3cnc4ccc(Nc5nnc(C6CCCC6)s5)nc4c3)cn2)CC1 [Example 0353] | – | < 1000 nM | < 1000 nM | – | – | – | < 1000 nM
c1ncc(Nc2cnc3ccc(Nc4nnc(C5CCCC5)s4)nc3c2)cn1 [Example 0089] | – | – | – | < 1000 nM | < 1000 nM | < 1000 nM | –
c1cc(CN2CCCC2)ncc1Nc1cnc2ccc(Nc3nnc(C4CCCC4)s3)nc2c1 [Example 0086] | – | – | – | < 1000 nM | < 1000 nM | < 1000 nM | –
Cc1nn(C)cc1-c1cnc2ccc(Nc3nnc(C(C)C)s3)nc2c1 [Example 0120] | – | – | – | < 1000 nM | < 1000 nM | < 1000 nM | –
CNCc1nn(C)cc1-c1cnc2ccc(Nc3nnc(C(C)C)s3)nc2c1 [Example 0383, 5-isopropyl-N-(7-(1-methyl-3-((methylamino)methyl)-1H-pyrazol-4-yl)-1,5-naphthyridin-2-yl)-1,3,4-thiadiazole-2-amine] | – | 1000 to 10000 nM | < 1000 nM | – | – | – | < 1000 nM
CC(C)c1cnnc(Nc2ccc3ncc(Nc4cncc(OCCN5CCOCC5)c4)cc3n2)c1 [Example 0159, N^2-(5-isopropylpyridazin-3-yl)-N^7-(5-(2-morpholinoethoxyl)pyridin-3-yl)-1,5-naphthyridine-2,7-diamine] | – | – | – | < 1000 nM | < 1000 nM | < 1000 nM | –
Cn1cc(-c2cnc3ccc(Nc4nnc(C5CCCC5)s4)nc3c2)c(-c2ccccc2)n1 [Example 0129, 5-cyclopentyl-N-(7-(1-methyl-3-phenyl-1H-pyrazol-4-yl)-1,5-naphthyridin-2-yl)-1,3,4-thiadiazole-2-amine] | – | – | – | < 1000 nM | < 1000 nM | 1000 to 10000 nM | –
COc1cncc(Nc2cnc3ccc(Nc4cc(C)cnn4)nc3c2)c1 [Example 0157, N^7-(5-methoxypyridin-3-yl)-N^2-(5-methylpyridazin-3-yl)-1,5-naphthyridine-2,7-diamine] | – | – | – | < 1000 nM | < 1000 nM | < 1000 nM | –
Cn1cc(-c2cnc3ccc(Nc4nnc(CS(C)(=O)=O)s4)nc3c2)cn1 [Example 0257, N-(7-(1-methyl-1H-pyrazol-4-yl)-1,5-naphthyridin-2-yl)-5-((methylsulfonyl)methyl)-1,3,4-thiadiazole-2-amine] | – | 1000 to 10000 nM | < 1000 nM | – | – | – | < 1000 nM
CC(C)c1cnnc(Nc2ccc3ncc(-c4cnn(CCCc5ccccc5)c4)cc3n2)c1 [Example 0372] | – | 1000 to 10000 nM | < 1000 nM | – | – | – | < 1000 nM
